# Results as given in US20220235047A1, “A MEDICAMENT FOR TREATING MYCOBACTERIAL INFECTION CHARACTERIZED BY COMBINING A CYTOCHROME bc1 INHIBITOR WITH CLARITHROMYCIN OR AZITHROMYCIN AND CLOFAZIMINE” (priority 2019, published 2022).
# Columns and labels:
# [1] = tested on: Mycobacterium avium ATCC700898; assay: Test3: mouse lung infection model, CFU in lungs after 2 weeks of treatment; assay type: in vivo; conditions: day 15, AZM 10 mg/kg, RFP 10 mg/kg, ETB 100 mg/kg, CFZ 20 mg/kg, Q203 5 mg/kg
# Source text: (§1) Almost protocol was the same as the protocol described in Test1 above.
# [2] = tested on: cytochrome P-450 (CYP) 3A; conditions: cited from earlier work
# [3] = tested on: Mycobacterium avium ATCC700898; assay: Test1: mouse lung infection model, CFU in lungs after 2 weeks of treatment
# Description: There were 9 study groups and 4 mice per group
# All treatments were evaluated on Mycobacterium avium ATCC700898.
# All formulations prepared in 20% Tween20, 80% aq. (20% HP-ß-CD and 0. 6% HPMC, pH3).
# All formulations were solutions and prepared every day.
# Time Schedule, after mice were infected.
# The mice were infected with Mycobacterium avium strain.
# When 0.07 mL of this dilution is injected, each mouse receives 10^6 bacteria.
# 36 female 8-weeks old BALB/c mice, Charles River, were inoculated intranasally with 0.07 mL of a bacterial suspension containing ±10^6 colony forming units (CFU). […]
# The effectiveness of treatments was assessed by counting the numbers of colony-forming-units (CFU) in the lungs. • 1.8 mL Mueller Hinton Broth (MHB) was added to each homogenization tube containing lung. • Lungs were homogenized, and four 10-fold serial dilutions were made in MHB. • From each individual lung, 100 μL of the undiluted suspension and four serial 10-fold dilutions, were plated on 7H10 agar plates. • CFU's were counted after incubation at 35° C. for 2 weeks. • The bactericidal effect of the treatment was defined as a significant decrease of the mean number of CFU in the treated group compared to pre-treatment value.
# [4] = tested on: Mycobacterium avium ATCC700898; assay: Test2: mouse lung infection model, CFU in lungs after 2 weeks of treatment; assay type: in vivo; conditions: day 15, CAM 200 mg/kg
# Source text: There were 6 study groups and 4 mice per group
# as §1
# M. intracellulare = conditions: in vitro, majority of M. intracellulare isolates; cited from earlier work
# MAC = conditions: pulmonary disease patients infected by MAC; relapse still occurred; cited from earlier work
# M. avium = conditions: in vitro; cited from earlier work
# cytochrome bc1 = cytochrome bc1 (Mycobacterium tuberculosis, UniProt P9WP37); conditions: described in WO2017/049321 (HT-21) and WO2011/113606 (Q203); cited from earlier work
# TB = conditions: in vitro and in vivo mouse model; cited from earlier work
# Sequence of cytochrome bc1 (P9WP37 whole entry, looked up): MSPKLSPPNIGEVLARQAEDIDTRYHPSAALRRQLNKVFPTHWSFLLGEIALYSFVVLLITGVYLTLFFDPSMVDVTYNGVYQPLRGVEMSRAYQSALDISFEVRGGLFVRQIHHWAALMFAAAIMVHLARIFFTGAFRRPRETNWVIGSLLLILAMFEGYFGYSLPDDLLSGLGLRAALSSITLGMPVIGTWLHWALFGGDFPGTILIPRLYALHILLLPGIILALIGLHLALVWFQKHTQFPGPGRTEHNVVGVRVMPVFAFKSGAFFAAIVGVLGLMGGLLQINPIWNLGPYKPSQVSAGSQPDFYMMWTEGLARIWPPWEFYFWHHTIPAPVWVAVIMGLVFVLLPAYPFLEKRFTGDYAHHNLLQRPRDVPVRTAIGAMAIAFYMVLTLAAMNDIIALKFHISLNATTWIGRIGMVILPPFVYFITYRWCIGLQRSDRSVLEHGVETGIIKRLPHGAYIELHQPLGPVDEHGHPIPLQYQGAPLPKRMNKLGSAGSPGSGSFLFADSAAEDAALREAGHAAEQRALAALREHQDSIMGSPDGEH
smiles,measurement,setting,value
"CC[C@H]1OC(=O)[C@H](C)[C@@H](O[C@H]2C[C@@](C)(OC)[C@@H](O)[C@H](C)O2)[C@H](C)[C@@H](O[C@@H]2O[C@H](C)C[C@H](N(C)C)[C@H]2O)[C@](C)(O)C[C@@H](C)CN(C)[C@H](C)[C@@H](O)[C@]1(C)O [AZM, Azithromycin]",Mean Log10 (CFU in lungs),[1],6.19
same,inhibition of CYP3A,[2],does not inhibit
"CC[C@H]1OC(=O)[C@H](C)[C@@H](O[C@H]2C[C@@](C)(OC)[C@@H](O)[C@H](C)O2)[C@H](C)[C@@H](O[C@@H]2O[C@H](C)C[C@H](N(C)C)[C@H]2O)[C@](C)(OC)C[C@@H](C)C(=O)[C@H](C)[C@@H](O)[C@]1(C)O [CAM, Clarithromycin]",Mean Log10 (CFU in lungs),"[3]; BALB/c mice, day 15, oral once daily, 10 doses, CAM 200 mg/kg, RFP 20 mg/kg, ETB 100 mg/kg, CFZ 20 mg/kg",3.98
same,drop in mean log 10 CFU from Control 2,[4],1.0
same,Mean Log10 (CFU in lungs),"[4]; CFZ 20 mg/kg, HT-21 5 mg/kg or Q203 5 mg/kg",4.85
same,inhibition of CYP3A,[2],inhibits
"CC(C)/N=c1\cc2n(-c3ccc(Cl)cc3)c3ccccc3nc-2cc1Nc1ccc(Cl)cc1 [CFZ, Clofazimine]",MIC,M. intracellulare,< 1 µg/mL
same,proportion of patients converted to negative cultures,MAC,significantly greater proportion
same,MIC,M. avium,1 to 4 µg/mL
Cc1ccn2c(C(=O)NCc3ccc(N4CCCN(c5ccc(C(F)(F)F)cc5)CC4)c(F)c3)c(C)nc2c1 [HT-21],"efficacy (CFU in lungs), in words","[3]; HT-21 200 mg/kg added to clarithromycin+clofazimine, cut off 2.00",the effect reached plateau
same,cytochrome bc1 inhibitory activity,cytochrome bc1,excellent cytochrome bc1 inhibitory activity
CCc1nc2cc(C)ccn2c1C(=O)NCc1ccc(N2CCC(c3ccc(OC(F)(F)F)cc3)CC2)cc1 [Q203],cytochrome bc1 inhibitory activity,cytochrome bc1,excellent cytochrome bc1 inhibitory activity
same,growth of TB,TB,inhibited the growth of TB
